# Measured values: a melting point compilation (Tetko et al.; mined from patent text by program, amines drawn as free bases though some values may be those of a salt)
row,SMILES,melting point [°C]
1,Nc1c2c(nc3cc(F)ccc13)CCSC2,234 to 237
2,COC(=O)c1ccc(C#N)cc1Cl,90 to 92
3,Clc1ccc(CCC(Cn2ccnc2)Sc2c(Cl)cc(Cl)cc2Cl)cc1 (configuration not stated),132
4,CC(=O)NC[C@H]1CN(c2ccc(C3CCN(CCF)CC3)c(F)c2)C(=O)O1,155 to 157
5,Cn1cc([C@H]2CC[C@@H](N3CCN(c4cc(C(=O)O)cc5cccnc45)CC3)CC2)c2cc(C#N)ccc21,230
6,Cn1ccnc1COc1cc(Cl)ncn1,126 to 128
7,O=C(NCCC(F)=C(F)F)C(=O)NCCC(F)=C(F)F,139 to 141
8,CC(=O)N1CCn2nc(Nc3cc(-c4ccc5c(c4)NC(=O)C5)cn4ccnc34)cc2C1,161 to 165
9,CC(C)(C)c1cc(C(c2ccccc2)c2cc(C(C)(C)C)cc(C(C)(C)C)c2O)c(O)c(C(C)(C)C)c1,165 to 167
10,CCC(=C(c1ccc(O)cc1)c1ccc(O)cc1)c1ccc(OCCO)c(OC)c1,158 to 159
11,CC(C)N1CNS(=O)(=O)c2sc(Cl)cc21,100 to 102
12,CCc1c(Oc2cnc(N)nc2N)cc(Br)c2c1OCCO2,291 to 293
13,O=C(Nc1ccc2c(c1)OCCO2)NC12CC3CC(CC(C3)C1)C2,230 to 236
14,Cc1cc(C)c2cccc(OCc3c(Cl)ccc(S(=O)(=O)N4CCC[C@H]4C(=O)NCCCN(C)C(=O)OC(C)(C)C)c3Cl)c2n1,80
15,CCCCCCCCCCCCSCN(O)CSCCCCCCCCCCCC,63 to 65
16,Nc1ccc(-c2noc(-c3cnn4c(C(F)(F)F)cc(-c5ccc(C(F)(F)F)c(F)c5)nc34)n2)cn1,233
17,O=C(O)c1ncsc1S,156 to 157
18,CCCCN(CCCC)c1nnc(N)s1,116 to 117
19,CN1CCC(O)(C2CC(c3ccc(-c4ccc(N5C[C@H](Cn6ccnn6)OC5=O)cc4F)cn3)=NO2)CC1 (some centres not stated),73
20,COc1ccc(N2CCOCC2)cc1NC(=S)C(=O)O,156 to 158
21,O=S(=O)(NCCCCOc1ccc(-n2ccnc2)cc1)c1cccc2nonc12,125 to 126

row,SMILES,melting point [°C]
1,COC1=CC23CCN(C)C(Cc4ccc(OC)c(O)c42)C3=CC1C (configuration not stated),97 to 100
2,CCn1nc(C(F)(F)F)c(CS(=O)(=O)C2=NOC(C)(CCl)C2)c1F (configuration not stated),73 to 75
3,CCOC(=O)Nc1cc([N+](=O)[O-])ccc1F,90 to 92
4,CCn1cc(-c2ccc(O)cc2)nc1S,252
5,CC(=O)C(=Cc1ccc(Br)s1)C(C)=O,70 to 74
6,CN1CCN(c2cccc(Nc3cc(NC(=O)Nc4c(Cl)cc(Cl)cc4Cl)ncn3)c2)CC1,138 to 142
7,CCn1ncc(C(=O)c2ccc(S(C)(=O)=O)c(C(=O)OC)c2C)c1O,150 to 152
8,CC(=O)Oc1ccc(C(=O)NCCO[N+](=O)[O-])cc1,95 to 97
9,CCOC(=O)c1c(C(F)(F)F)nc(C(F)F)c(C(=O)OC)c1C1CO1 (configuration not stated),57.5 to 59
10,C=CC[C@@H]1C[C@@H](COS(C)(=O)=O)NC1=O,62 to 63
11,CCOc1cc(N=Nc2ccc(OC)cc2)c(O)c(C(C)(C)C)c1,105 to 108
12,N=C(N)Nc1nc(CCCCNc2ncc(Cc3ccc(Cl)cc3)c(=O)[nH]2)cs1,200 to 205
13,C#CCNc1cc(F)c([N+](=O)[O-])cc1[N+](=O)[O-],113 to 115
14,O=c1[nH]c2cccc(C3CCCNC3)c2[nH]1 (configuration not stated),260
15,C=CCc1cc(C(=O)OC(C)C)ccc1O,79 to 80
16,CCc1nn2c(N3CCN(C)CC3)cc(OCCO)nc2c1S(=O)(=O)c1ccccc1,153 to 154
17,C=CCNc1cc(Cl)nnc1NN,184 to 186
18,C=CC1CCC2C3CCC4=CC(O)C=CC4(C)C3CCC12C (configuration not stated),98 to 128
19,COC(=O)CCC(C)C1CCC2C3CCC4CC(N)CCC4(C)C3CC(=O)C12C (configuration not stated),129 to 130
20,CCOC(=O)c1c(C)noc1C(=O)O,54 to 58
21,CON(C)C(=O)c1cc(C(F)(F)F)nc2c(C(F)(F)F)cccc12,93 to 95

row,SMILES,melting point [°C]
1,COc1ccc(C(Cl)C(C)(C)[N+](=O)[O-])cc1OC (configuration not stated),109 to 110
2,OCc1ccc(-c2cc3c(NCc4cccc(Cl)c4)ncnc3[nH]2)cc1,296 to 298
3,CC(C)(C)OC(=O)N1CC2CN(c3nc(C4=NOC(c5c(F)cccc5F)C4)cs3)CC2C1 (configuration not stated),78.9 to 80.2
4,CCn1cc(C(=O)O)c(=O)c2cc(C)sc21,229 to 230
5,CCOCCOC(=O)C(=O)Nc1nc(-c2ccc(C(C)(C)C)cc2)cs1,158 to 160
6,COc1ccc(-c2c3c(cc4ccc(O)cc24)-c2ccc(O)cc2CO3)cc1OC,245 to 248
7,Cc1cc(C)cc(NCc2ccc3nc(NCCCN4CCCCC4)n(Cc4nc(C)ccc4O)c3c2)c1,161
8,CCCCc1cc(C#N)sc1-c1ccc2c(c1)C(C)(C)OC(=S)N2,174 to 175
9,CCCCN1CCC(CCC(=O)c2cc(Cl)c(N)nc2OC)CC1,86 to 87
10,Cc1ccc(N2N=C3c4cc(C)sc4CCCC3CC2=O)cc1 (configuration not stated),117 to 119
11,CCOC(=O)C(Cc1c(Cl)cc(OC)cc1Cl)(NC(C)=O)C(=O)OCC,154 to 156
12,O=C(O)C=CC=Cc1cccc2cncn12,243 to 245
13,Cc1sc(C)c2c(=O)n3cc(C#N)ccc3nc12,242 to 244
14,NS(=O)(=O)c1cc2c(s1)S(=O)(=O)CC=C2,210 to 212
15,CCCc1nc(NCCO)nc(N2CCOCC2)n1,95 to 99
16,CN1C(=O)N(c2c(Cl)cccc2Cl)Cc2cnc(NCc3ccc(CN)cc3)nc21,151 to 152
17,Cn1ccc2ccc(N3Cc4ccc(-c5cccnc5)cc4C3=O)cc21,187 to 188
18,O=[N+]([O-])c1ccc(NC(CO)(CO)CO)cc1,165
19,CCOCc1nc2c(N)nc3cc(-c4cncc(CO)c4)ccc3c2n1CC(C)C,211 to 212

# Now from value to compound:
row,melting point [°C],SMILES
1,161 to 162,C=C1CC(C)(COc2cc(=O)oc3ccccc23)OC1=O (configuration not stated)
2,192 to 193,Nc1cccc(C2=NNC(=O)C3CC23)c1 (configuration not stated)
3,162 to 163,Cc1oc(-c2ccc3ccccc3c2)nc1/C=C/c1ccc(C=O)cc1
4,144 to 146,O=C(C=C(C(=O)O)c1csc(NC(=O)OCc2ccccc2)n1)OCc1ccccc1
5,148 to 150,Cc1c(C)c2c(c(C)c1Nc1ccccc1)CC(C)(C)O2
6,210 to 215,CC(Cc1c[nH]c2ccccc12)(NC(=O)OC1C2CC3CC(C2)CC1C3)C(=O)O (configuration not stated)
7,102 to 104,COc1ccnc(CSc2nc3cscc3n2C(=O)OCc2ccccc2)c1
8,206 to 210,Cc1cc(C)cc(NC(=O)c2ccc([N+](=O)[O-])cc2)c1
9,139 to 140,Cc1oc(-c2ccccc2)nc1C(O)COc1ccc(N)cc1 (configuration not stated)
10,94 to 96,COc1ccc(C(=O)c2c(F)cccc2F)c(Cl)c1Cl
11,97 to 99,Cc1cc(Oc2cccc(C(F)(F)F)c2)nn1C(=O)Nc1ccc(Cl)c(Cl)c1
12,137 to 139,C1=CC(Nc2ccccc2)C(=Nc2ccccc2)N1 (configuration not stated)
13,58 to 60,N#Cc1ccc(C(=O)N2C[C@H](OCc3ccccc3)C[C@H]2C(=O)O)cc1
14,160,NS(=O)(=O)c1ccc(C2=NC3(O)c4ccc(Cl)cc4CC3S2)cc1 (configuration not stated)
15,103 to 104,CCCCc1nn(-c2ccccc2Cl)c(=O)[nH]1
16,181 to 184,CC(C)(C)OC(=O)CN1C(=O)[C@@H](N2C(=O)c3ccccc3C2=O)CSc2ccccc21
17,152 to 155,Cc1noc([C@@H](Cc2ccccc2)NC(=O)[C@@H](Cc2ccc3ccccc3c2)NC(=O)C2CCN(C(=O)OC(C)(C)C)CC2)n1
18,102 to 104,Cc1ncoc1C(O)c1ccc(F)cc1 (configuration not stated)
19,207 to 208,Cc1ccc(-c2nc3n(n2)Cc2ccccc2-3)cc1
20,102 to 103,Oc1cc(COCc2ccccc2)ncn1
21,133 to 135,O=C(C=Cc1ccccc1Cl)Nc1cc(Cl)cc(Nc2noc3ccccc23)c1

row,melting point [°C],SMILES
1,168 to 188,N#Cc1ccc(-c2cn(-c3ccc(C#N)cc3)c(Cc3ccccc3)n2)cc1
2,> 275,Cc1ccc(C(=O)Nc2nc(-c3ccccc3)c(-c3nc4ccccc4c(=O)n3-c3ccccc3Cl)s2)cc1
3,183,Cc1cc(C)cc(Nc2nccc(-n3ccnc3-c3ccccc3)n2)c1
4,169 to 172,COc1ccc(C(=O)N2CCc3nnc(NN)cc3C2)cc1
5,94 to 96,O=C(c1ccccc1)c1cc2c([N+](=O)[O-])c(O)c(O)cc2oc1=O
6,125 to 127,CC1C(=O)Nc2c(C(=O)c3ccccc3)cccc21 (configuration not stated)
7,150 to 153,OC1CC(c2ccccc2)C(c2ccccc2)(c2ccc(OCCN3CCOCC3)cc2)O1 (configuration not stated)
8,106 to 108,Cn1c(CC#N)ccc1C(=O)c1ccccc1
9,78 to 80,c1ccc(CC(=Nn2cncn2)c2ccccc2)cc1
10,153 to 155,Cc1cccc(-c2[nH]c(C(C)C)nc2-c2cccc(-c3ccccc3F)c2)n1
11,65 to 68,CNC(=O)[C@H](Cc1ccc(OCc2ccccc2)cc1)NC(=O)[C@H](CC(C)C)N[C@H](C)C(=O)OC
12,176,O=C(C=Cc1cccc(S(=O)(=O)N2CCN(c3ccccc3F)CC2)c1)NO
13,143 to 145,O=C(Nc1nnn(C(F)F)n1)C(c1ccccc1)c1ccccc1
14,> 300,COc1ccc(C(=O)Nc2cc(NC(=O)c3cccc(NS(C)(=O)=O)c3)ccc2C)cc1OC
15,138 to 139,COc1ccc(OCCOc2ccc(C(=O)C(=O)O)cc2)cc1
16,117 to 119,CCN(CC)C(=O)/C=C(\C)c1ccc(OC(C)c2ccccc2)c(OC(C)(C)C(=O)O)c1 (configuration not stated)
17,249 to 250,S=c1[nH]c2cccc(OCCN3CCc4ccccc4C3)c2[nH]1
18,176 to 178,COc1cccc(-c2nn(C(C)c3oc4ccccc4c(=O)c3-c3ccccc3)c3ncnc(N)c23)c1 (configuration not stated)
19,262 to 264,Cc1n[nH]c(-c2ccc(Br)cc2)c1NC(=O)c1cccnc1
20,128 to 129,OC(CCc1ccccc1)C(O)CCc1ccccc1 (configuration not stated)
